Test results reported in patent US20180353483A1, “PHARMACEUTICAL COMPOSITIONS AND METHODS FOR INDOLEAMINE, 2, 3-DIOXYGENASE INHIBITION AND INDICATIONS THEREFOR” (Incyte Corporation, priority 2015, published 2018).
Where two headings read alike, the source gives them in different places.

Assay: Pharmacokinetics of Compound 1 in combination with MK-3475 in subjects with various cancers
Assay type: in vivo, human
Procedure: The subjects were not limited to a specific cancers and study include subjects with various cancers. […] One treatment cycle consisted of 21 days. […] Additional subjects were enrolled in a cohort to achieve the minimum of 3 evaluable subjects if dropouts or dose interruptions or reductions occur that result in a subject being non-evaluable for DLTs. […] An additional safety cohort was opened at 100 mg BID in parallel to 300 mg BID being tested. This may also be limited to subjects with melanoma, NSCLC, or specific cancer types from among those included in Phase 1. The RP2D was selected from the evaluated safety expansions.
If a dose was missed by more than 4 hours, that dose was skipped and was resumed at the scheduled time.
Pharmacokinetic samples were obtained at the visits of Cycle 1 Day 1, Cycle 1 Day 8 and Cycle 2 Day 1. […] The exact date and time of the PK blood draws were recorded in the eCRF along with the date and time of the last dose of study drug and details of the last meal preceding the blood draw.
The planned PK time points were used for preliminary PK analyses.

[1] = subjects with dose reduction before C4D1, 50 mg BID, C1D8, mean ± SD

For `NS(=O)(=O)NCCNc1nonc1C(=NO)Nc1ccc(F)c(Br)c1` [Compound 1, 4-({2-[(aminosulfonyl)amino]ethyl}amino)-N-(3-bromo-4-fluorophenyl)-N′-hydroxy-1,2,5-oxadiazole-3-carboximidamide], the AUC(0-t) (human, plasma, oral, 100 mg, Diagnosis DLBCL, first dose, geometric mean, read-out: AUC0-t) was 1.9 µM·h, the Cmax (human, plasma, oral, 100 mg, Diagnosis DLBCL, first dose, mean ± SD) was 732 ± 370 nM and the tmax (human, plasma, oral, 100 mg, Diagnosis DLBCL, first dose, median, read-out: tmax) was 3 h. The Cmax (human, plasma, oral, 100 mg, Diagnosis GU, first dose, geometric mean) was 878 nM, the AUC(0-t) (human, plasma, oral, 100 mg, Diagnosis GU, first dose, geometric mean, read-out: AUC0-t) was 2.71 µM·h and the Cmax (human, plasma, oral, 100 mg, Diagnosis GU, first dose, mean ± SD) was 986 ± 492 nM. For the same compound, the AUC(0-t) (human, plasma, oral, 100 mg, Diagnosis GU, first dose, mean ± SD, read-out: AUC0-t) was 2.96 ± 1.28 µM·h, the AUC(0-t) (human, plasma, oral, 100 mg, Diagnosis MEL, first dose, geometric mean, read-out: AUC0-t) was 2.37 µM·h and the Cmax (human, plasma, oral, 100 mg, Diagnosis MEL, first dose, mean ± SD) was 870 ± 347 nM. It also gave an AUC(0-t) (human, plasma, oral, 100 mg, Diagnosis MEL, first dose, mean ± SD, read-out: AUC0-t) of 2.48 ± 0.773 µM·h, a Cmax (human, plasma, oral, 100 mg, Diagnosis NSCLC PD-L1 High, first dose, geometric mean) of 878 nM and an AUC(0-t) (human, plasma, oral, 100 mg, Diagnosis NSCLC PD-L1 High, first dose, geometric mean, read-out: AUC0-t) of 2.62 µM·h. For the same compound, the Cmax (human, plasma, oral, 100 mg, Diagnosis NSCLC PD-L1 High, first dose, mean ± SD) was 1020 ± 573 nM, the AUC(0-t) (human, plasma, oral, 100 mg, Diagnosis NSCLC PD-L1 High, first dose, mean ± SD, read-out: AUC0-t) was 2.88 ± 1.3 µM·h and the tmax (human, plasma, oral, 100 mg, Diagnosis NSCLC PD-L1 High, first dose, median, read-out: tmax) was 1.5 h. For the same compound, the Cmax (human, plasma, oral, 100 mg, Diagnosis NSCLC PD-L1 Low/NE, first dose, geometric mean) was 857 nM, the AUC(0-t) (human, plasma, oral, 100 mg, Diagnosis NSCLC PD-L1 Low/NE, first dose, geometric mean, read-out: AUC0-t) was 2.66 µM·h and the AUC(0-t) (human, plasma, oral, 100 mg, Diagnosis NSCLC PD-L1 Low/NE, first dose, mean ± SD, read-out: AUC0-t) was 2.77 ± 0.839 µM·h. It also gave a Cmax (human, plasma, oral, 100 mg, Diagnosis OC, first dose, geometric mean) of 886 nM, an AUC(0-t) (human, plasma, oral, 100 mg, Diagnosis OC, first dose, geometric mean, read-out: AUC0-t) of 2.99 µM·h and a Cmax (human, plasma, oral, 100 mg, Diagnosis OC, first dose, mean ± SD) of 967 ± 405 nM. The AUC(0-t) (human, plasma, oral, 100 mg, Diagnosis OC, first dose, mean ± SD, read-out: AUC0-t) was 3.16 ± 1.1 µM·h, the tmax (human, plasma, oral, 100 mg, Diagnosis RCC, first dose, individual values of 2 subjects, read-out: tmax) was 3 h and the Cmax (human, plasma, oral, 100 mg, Diagnosis SCCHN, first dose, geometric mean) was 649 nM. For the same compound, the AUC(0-t) (human, plasma, oral, 100 mg, Diagnosis SCCHN, first dose, geometric mean, read-out: AUC0-t) was 2.06 µM·h, the Cmax (human, plasma, oral, 100 mg, Diagnosis SCCHN, first dose, mean ± SD) was 769 ± 439 nM and the Cmax (human, plasma, oral, 100 mg, Diagnosis TNBC, first dose, geometric mean) was 898 nM. It also gave an AUC(0-t) (human, plasma, oral, 100 mg, Diagnosis TNBC, first dose, geometric mean, read-out: AUC0-t) of 2.82 µM·h, a Cmax (human, plasma, oral, 100 mg, Diagnosis TNBC, first dose, mean ± SD) of 1030 ± 574 nM and an AUC(0-t) (human, plasma, oral, 100 mg, Diagnosis TNBC, first dose, mean ± SD, read-out: AUC0-t) of 3.08 ± 1.39 µM·h. For the same compound, the AUC(0-t) (human, plasma, oral, 100 mg, by dose, 100 mg BID, steady state C1D8, geometric mean, read-out: AUC0-12 h (converted)) was 3.57 µM·h, the AUC(0-t) (human, plasma, oral, 100 mg, by dose, 100 mg BID, steady state C1D8, mean ± SD, read-out: AUC0-12 h (converted)) was 3.82 ± 1.37 µM·h and the AUC(0-t) (human, plasma, oral, 100 mg, by dose, 100 mg, first dose, mean ± SD, read-out: AUC0-t) was 2.47 ± 0.861 µM·h. It also gave an AUC(0-t) (human, plasma, oral, 300 mg, Cohort 6, 300 mg BID, steady state C1D8, geometric mean, read-out: AUC0-12 h (converted)) of 11.3 µM·h, an AUC(0-t) (human, plasma, oral, 300 mg, Cohort 6, 300 mg BID, steady state C1D8, mean ± SD, read-out: AUC0-12 h (converted)) of 12.3 ± 6.09 µM·h and a Cmax (human, plasma, oral, 300 mg, Cohort 6, 300 mg, first dose, geometric mean) of 1790 nM. For the same compound, the AUC(0-t) (human, plasma, oral, 300 mg, Cohort 6, 300 mg, first dose, geometric mean, read-out: AUC0-t) was 6.92 µM·h, the Cmax (human, plasma, oral, 300 mg, Cohort 6, 300 mg, first dose, mean ± SD) was 2220 ± 1720 nM and the AUC(0-t) (human, plasma, oral, 300 mg, Cohort 6, 300 mg, first dose, mean ± SD, read-out: AUC0-t) was 7.47 ± 3.32 µM·h. The AUC(0-t) (human, plasma, oral, 300 mg, Cohort 7, 300 mg BID, steady state C1D8, geometric mean, read-out: AUC0-12 h (converted)) was 11.3 µM·h, the Cmax (human, plasma, oral, 300 mg, Cohort 7, 300 mg BID, steady state C1D8, mean ± SD) was 2750 ± 1220 nM and the AUC(0-t) (human, plasma, oral, 300 mg, Cohort 7, 300 mg BID, steady state C1D8, mean ± SD, read-out: AUC0-12 h (converted)) was 12.2 ± 5.92 µM·h. The Cmax (human, plasma, oral, 300 mg, Cohort 7, 300 mg, first dose, geometric mean) was 2170 nM, the AUC(0-t) (human, plasma, oral, 300 mg, Cohort 7, 300 mg, first dose, geometric mean, read-out: AUC0-t) was 6.88 µM·h and the Cmax (human, plasma, oral, 300 mg, Cohort 7, 300 mg, first dose, mean ± SD) was 2330 ± 925 nM. The AUC(0-t) (human, plasma, oral, 300 mg, Cohort 7, 300 mg, first dose, mean ± SD, read-out: AUC0-t) was 7.38 ± 2.86 µM·h, the AUC(0-t) (human, plasma, oral, 300 mg, by dose, 300 mg BID, steady state C1D8, geometric mean, read-out: AUC0-12 h (converted)) was 11.3 µM·h and the Cmax (human, plasma, oral, 300 mg, by dose, 300 mg BID, steady state C1D8, mean ± SD) was 2740 ± 1190 nM. It also gave an AUC(0-t) (human, plasma, oral, 300 mg, by dose, 300 mg BID, steady state C1D8, mean ± SD, read-out: AUC0-12 h (converted)) of 12.3 ± 5.81 µM·h, an AUC(0-t) (human, plasma, oral, 300 mg, by dose, 300 mg, first dose, geometric mean, read-out: AUC0-t) of 6.89 µM·h and an AUC(0-t) (human, plasma, oral, 300 mg, by dose, 300 mg, first dose, mean ± SD, read-out: AUC0-t) of 7.41 ± 2.95 µM·h. The Cmax (human, plasma, oral, 300 mg, subjects with dose reduction before C4D1, 300 mg BID, C1D8, geometric mean) was 3000 nM, the AUC(0-t) (human, plasma, oral, 300 mg, subjects with dose reduction before C4D1, 300 mg BID, C1D8, geometric mean, read-out: AUC0-12 h (converted)) was 13.3 µM·h and the Cmax (human, plasma, oral, 300 mg, subjects with dose reduction before C4D1, 300 mg BID, C1D8, mean ± SD) was 3180 ± 1280 nM. The AUC(0-t) (human, plasma, oral, 300 mg, subjects with dose reduction before C4D1, 300 mg BID, C1D8, mean ± SD, read-out: AUC0-12 h (converted)) was 14.6 ± 7.4 µM·h, the “dose proportionality of exposures” value (non-compartmental analysis) was “approximate dose-proportional exposures” and the AUC0-12 h (subjects with dose reduction before C4D1, 50 mg BID, C1D8, geometric mean) was “(2.29) μM * h”. The AUC0-12 h [1] was 2.41 ± 0.980 µM·h, the CL/F [1] was 52.0 ± 17.1 L/h and the tmax (subjects with dose reduction before C4D1, 50 mg BID, C1D8, median) was 2.00 h. The CL/F (subjects with dose reduction before C4D1, 300 mg BID, C1D8, mean ± SD) was 55.4 ± 23.0 L/h and the tmax (subjects with dose reduction before C4D1, 300 mg BID, C1D8, median) was 2.00 h.
